Values quoted from earlier work as cited in article PMC2970821 (Clinical Proteomics, 2010).
Ends that are not written are not given here.

Conditions: apparently generating ITIH4-25, ref [26]

RPGVLSSRQLGLPGPPDVPDHAAYHPF [ITIH4-27]
Susceptibility to degradation of the synthetic peptide in plasma and serum: highest susceptibility to degradation
